“And” between values parts separate entries of the source, which are not always exact repeats. Equal entries are not always repeated.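 Briefly, cells in 96-well plates were exposed to five compound concentrations for 48 h, and endpoints were estimated by linear interpolation. GI50 marks 50% less growth. Definition used: TGI = concentration required for complete inhibition of growth.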

Among the test systems are EKVX NSCLC; KM12 colon; K-562 leukemia; SF-539 CNS; OVCAR-5 ovarian; SK-MEL-5 melanoma; COLO 205 colon; SF-295 CNS; HCT-15 colon; SF-268 CNS.
Test in all cases: NCI-60 cell line screen, 48 h

`Clc1ccc2nc(-c3ccccc3)nc(Cl)c2c1`: the TGI in the test on EKVX NSCLC, with KM12 colon, in the test with K-562 leukemia, in the test on SF-539 CNS, in the test on OVCAR-5 ovarian and in the test with SK-MEL-5 melanoma was greater than 100 µM throughout. Besides, the TGI in the test with COLO 205 colon, in the test with SF-295 CNS, with HCT-15 colon and in the test on SF-268 CNS was greater than 100 µM throughout.

For the molecule `COC1C(OC(=O)/C=C/C=C/C=C/C=C\C(=O)O)CCC2(CO2)C1C1(C)OC1CC=C(C)C` (stereo not given), the GI50 in the test with EKVX NSCLC, in the test on KM12 colon, with K-562 leukemia, in the test on SF-539 CNS, in the test with OVCAR-5 ovarian and with SK-MEL-5 melanoma was greater than 200 µM throughout. Besides, the GI50 in the test on COLO 205 colon, in the test with SF-295 CNS, in the test with HCT-15 colon and in the test on SF-268 CNS was greater than 200 µM in each case. For the same molecule, the TGI in the test on EKVX NSCLC, with KM12 colon, in the test with K-562 leukemia, with SF-539 CNS, in the test on OVCAR-5 ovarian and in the test on SK-MEL-5 melanoma was greater than 200 µM each time. The TGI in the test with COLO 205 colon, in the test on SF-295 CNS, in the test on HCT-15 colon and with SF-268 CNS was greater than 200 µM throughout.

As to `Oc1cccc(/C=N/Nc2nnc(N/N=C/c3cccc(O)c3)c3ccccc23)c1`, the TGI in the test on EKVX NSCLC is 43.6 µM; in the test on KM12 colon it was greater than 100 µM; in the test with K-562 leukemia it was 47.6 µM; in the test with SF-539 CNS, 34.6 µM; with OVCAR-5 ovarian it was greater than 100 µM; in the test with SK-MEL-5 melanoma, 8.86 µM. The TGI in the test with COLO 205 colon is greater than 100 µM; in the test with SF-295 CNS it was 31.8 µM; in the test with HCT-15 colon, 39 µM; with SF-268 CNS, greater than 100 µM.

With `C=C(CC(=O)O)C(=O)O` (tested in a mixture with another compound), the GI50 with EKVX NSCLC is 40.6 µg/mL; with KM12 colon, greater than 50 µg/mL; in the test on K-562 leukemia, greater than 50 µg/mL; with SF-539 CNS, greater than 50 µg/mL; in the test on OVCAR-5 ovarian, greater than 50 µg/mL; in the test on SK-MEL-5 melanoma, greater than 50 µg/mL. The GI50 in the test with COLO 205 colon, in the test on SF-295 CNS, with HCT-15 colon and with SF-268 CNS was greater than 50 µg/mL throughout. In addition, the TGI in the test with EKVX NSCLC, in the test on KM12 colon, in the test with K-562 leukemia, in the test on SF-539 CNS, in the test on OVCAR-5 ovarian and in the test on SK-MEL-5 melanoma was greater than 50 µg/mL each time. Also, the TGI in the test with COLO 205 colon, in the test with SF-295 CNS, in the test on HCT-15 colon and with SF-268 CNS was greater than 50 µg/mL in each case.

As for `Cn1c2ccccc2c2c3[nH][nH]c(=O)c3c3c4ccccc4[nH]c3c21`, the GI50 is 2.41 µM in the test with EKVX NSCLC; 0.493 µM in the test on KM12 colon; 3.3 µM in the test with K-562 leukemia; 1.22 µM in the test on SF-539 CNS; 4.21 µM in the test with OVCAR-5 ovarian; 1.37 µM in the test with SK-MEL-5 melanoma. Moreover, the GI50 in the test on COLO 205 colon was 4.74 µM; in the test with SF-295 CNS, 3.14 µM; in the test on HCT-15 colon, 2.47 µM; in the test with SF-268 CNS, 2.62 µM. Further, the TGI was 8.1 µM in the test with EKVX NSCLC; 10.5 µM with KM12 colon; 15.9 µM with K-562 leukemia; 3.12 µM in the test with SF-539 CNS; greater than 100 µM in the test on OVCAR-5 ovarian; 5.04 µM in the test with SK-MEL-5 melanoma. Further, the TGI in the test on COLO 205 colon came to 21 µM; in the test on SF-295 CNS, 10.9 µM; with HCT-15 colon, 35.7 µM; in the test with SF-268 CNS, 14.4 µM.

Turning to `CN1CCN(c2nc(NCCCNc3ccnc4cc(Cl)ccc34)c3ccccc3n2)CC1`, the GI50 in the test on EKVX NSCLC was 11.4 µM; in the test with KM12 colon it was 4.02 µM; in the test with K-562 leukemia it was 2.64 µM; with SF-539 CNS it was 1.74 µM; with OVCAR-5 ovarian, 4.17 µM; with SK-MEL-5 melanoma, 1.78 µM. In addition, the GI50 in the test with COLO 205 colon is 1.86 µM; with SF-295 CNS, 2.05 µM; with HCT-15 colon it was 5.33 µM; in the test with SF-268 CNS, 4.71 µM. Moreover, the TGI with EKVX NSCLC was determined as 25.3 µM; in the test with KM12 colon it was 16.1 µM; in the test on K-562 leukemia, 10.9 µM; in the test with SF-539 CNS, 3.5 µM; in the test on OVCAR-5 ovarian it was 19.1 µM; in the test with SK-MEL-5 melanoma it was 3.18 µM. For the same molecule, the TGI was 4.51 µM with COLO 205 colon, 4.92 µM with SF-295 CNS, 18.8 µM in the test on HCT-15 colon and 19.2 µM with SF-268 CNS.

For `NC(=O)N/N=C(/Cc1nc2ccc(C(=O)c3ccccc3)cc2[nH]c1=O)C(=O)Nc1ccc(C(F)(F)F)cc1[N+](=O)[O-]`, the TGI with EKVX NSCLC, with KM12 colon, with K-562 leukemia, with SF-539 CNS, in the test on OVCAR-5 ovarian and in the test on SK-MEL-5 melanoma was greater than 100 µM each time. Moreover, the TGI in the test on COLO 205 colon, in the test on SF-295 CNS, in the test with HCT-15 colon and in the test with SF-268 CNS was greater than 100 µM each time.

On to `NC(N)=Nc1nc2ccc([N+](=O)[O-])cc2[nH]1`, for which the TGI with EKVX NSCLC, in the test on KM12 colon, in the test on K-562 leukemia, in the test with SF-539 CNS, in the test on OVCAR-5 ovarian and in the test on SK-MEL-5 melanoma was greater than 100 µM throughout. Besides, the TGI in the test on COLO 205 colon, in the test on SF-295 CNS, in the test with HCT-15 colon and with SF-268 CNS was greater than 100 µM each time.

Turning to `O=S1(=O)CS(=O)(=O)OCCO1`, the TGI in the test with EKVX NSCLC is 273 µM; in the test with KM12 colon it was 121 µM; with K-562 leukemia, 423 µM; in the test on SF-539 CNS it was > 78.2 µM and 63.5 µM; with OVCAR-5 ovarian it was 269 µM; in the test with SK-MEL-5 melanoma, 87.7 µM. The TGI with COLO 205 colon was found to be 157 µM; with SF-295 CNS it was 121 µM; in the test on HCT-15 colon, 128 µM; with SF-268 CNS, 249 µM. The GI50 was 30.4 µM in the test with SF-539 CNS; greater than 56.6 µM in the test with SK-MEL-5 melanoma; 43.1 µM in the test with SF-295 CNS; greater than 85.6 µM in the test on HCT-15 colon; 85.6 µM in the test on SF-268 CNS.

For the origin of these results see PubChem BioAssay (NCI).
